Experimental findings from article PMC3481155, “AhR activation underlies the CYP1A autoinduction by A-998679 in rats” (Frontiers in Genetics, 2012) are described below.

Series [1] concerns Cyp1a1. The series is described as follows: Cyp1a1 mRNA in rat liver after 5 days of dosing (microarray, RT-PCR). It counts as in vivo. On the procedure: All animal experiments were conducted in accordance with the Guiding Principles in the Use of Animals in Toxicology (http://www.toxicology.org/ai/air/air6.asp) and were approved by Abbott's Institutional Animal Care and Use Committee (IACUC). Male Sprague-Dawley rats [Crl:CD®(SD)IGS BR], weighing ~250 g at study initiation were obtained from Charles River Laboratories, Inc. (Wilmington, MA). Rats were housed singly in ventilated, stainless steel, wire-bottom hanging cages and fed non-certified Rodent Chow (Harlan Labs, Madison, WI), and water ad libitum and acclimated for at least 5 days after arrival. […] Serum clinical chemistry parameters were quantified using an Aeroset Clinical Chemistry Analyzer (Abbott Laboratories, Abbott Park, IL) and included alanine amino transferase (ALT), aspartate amino transferase (AST), gamma glutamyltransferase (GGT), and alkaline phosphatase (ALP) activities.
Frozen liver or jejunum were immediately added to 4 ml of TRIzol reagent (Invitrogen Life Technologies) and homogenized using a Polytron 300D homogenizer (Brinkman Instruments, Westbury, NY). […] Nucleic acid concentration was determined by OD 260 nm (Smart-Spec, Bio-Rad Laboratories, Hercules, CA), and RNA integrity was evaluated using an Agilent 2100 bioanalyzer (Agilent Technologies, Foster City, CA). […]

Series [2] deals with CYP1A2. As to the kind of experiment: CYP1A2 mRNA induction in primary dog hepatocytes. It counts as cell-based. To be noted: 10 μM, 48 h, data not shown. On the procedure:
Rat hepatocytes were isolated in a perfusion procedure as described previously (Elliget and Kolaja, [1983]; Waring et al., [2001]). The beagle dog hepatocytes were isolated in the same manner, except for adjustment of flow rate and buffer volume to scale to liver size. Cells were plated at a seeding density of 1.0 × 10^6 cells per well on 6-well, collagen-type I coated plates (BD Biosciences, Bedford, MA) in hepatocyte plating medium (Celsis, Baltimore, MD). Cells were allowed to attach for 24 h in a 37°C humidified incubator with a 5% CO2 atmosphere and were dosed for 24 h (rat) or 48 h (dog) with vehicle control [0.1% DMSO (v/v)] or 10 μM A-998679 in fresh treatment media (Celsis hepatocyte incubation media) every 24 h. After the last incubation, cells were lysed in 1 ml of Qiazol (Qiagen) and stored at −80°C until RNA isolation. Cryopreserved human hepatocytes (donor designation Hu4198; Invitrogen Life Technologies, Carlsbad, CA) were thawed and plated according to the manufacturer's protocol and allowed to incubate for 24 h. […]
RNA samples were diluted with RNase-free molecular biology grade water to a concentration of 20 ng/μl total RNA. […] Results were analyzed by calculating the fold change of CYP1A1 and/or CYP1A2 mRNA levels normalized to 28S rRNA (ΔΔ Ct) in compound treated cells or tissues compared to vehicle levels. […]

With `N#Cc1cccc(-c2noc(-c3cccnc3)n2)c1` [A-998679, 3-(5-pyridin-3-yl-1,2,4-oxadiazol-3-yl) benzonitrile], in series [1] (5 days of dosing, in at least one animal starting at the 100 mg/kg dose), the “Cyp1a1 mRNA increase in rat liver (microarray)” value was 10–100 fold. In series [1] (5 days, all doses (30, 100, 200 mg/kg/day)), the “Cyp1a1 mRNA expression in rat liver (RT-PCR)” value is “strongly induced”. Moreover, in series [2], the “CYP1A2 mRNA induction” value is listed as “also observed”.
